Measured values as given in ChEMBL document CHEMBL1144270, “Carbonic anhydrase inhibitors. Interaction of isozymes I, II, IV, V, and IX with carboxylates” (Bioorg Med Chem Lett, 2005).

How the values were obtained:
Carbonic anhydrase 1 = Carbonic anhydrase 1 (Homo sapiens, UniProt P00915); assay: Binding affinity against human cytosolic Carbonic anhydrase I (A = activator)
[1] = biological target: Carbonic anhydrase 5A, mitochondrial (Homo sapiens, UniProt P35218); assay: Binding affinity against human cytosolic Carbonic anhydrase V
Chain of Carbonic anhydrase 5A, mitochondrial (P35218 whole entry): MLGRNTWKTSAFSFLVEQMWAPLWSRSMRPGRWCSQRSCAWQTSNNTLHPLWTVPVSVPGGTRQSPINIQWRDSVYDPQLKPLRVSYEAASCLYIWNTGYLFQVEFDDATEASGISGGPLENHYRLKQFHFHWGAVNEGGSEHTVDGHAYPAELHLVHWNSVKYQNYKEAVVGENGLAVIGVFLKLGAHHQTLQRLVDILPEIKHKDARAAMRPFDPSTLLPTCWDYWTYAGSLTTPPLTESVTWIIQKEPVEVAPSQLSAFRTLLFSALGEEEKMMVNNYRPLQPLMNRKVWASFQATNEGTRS

Carbonic anhydrase 2 = Carbonic anhydrase 2 (Homo sapiens, UniProt P00918); assay: Binding affinity against human cytosolic Carbonic anhydrase II
Carbonic anhydrase 4 = Carbonic anhydrase 4 (Homo sapiens, UniProt P22748); assay: Binding affinity against human cytosolic Carbonic anhydrase IV
Chain of Carbonic anhydrase 4 (P22748 whole entry): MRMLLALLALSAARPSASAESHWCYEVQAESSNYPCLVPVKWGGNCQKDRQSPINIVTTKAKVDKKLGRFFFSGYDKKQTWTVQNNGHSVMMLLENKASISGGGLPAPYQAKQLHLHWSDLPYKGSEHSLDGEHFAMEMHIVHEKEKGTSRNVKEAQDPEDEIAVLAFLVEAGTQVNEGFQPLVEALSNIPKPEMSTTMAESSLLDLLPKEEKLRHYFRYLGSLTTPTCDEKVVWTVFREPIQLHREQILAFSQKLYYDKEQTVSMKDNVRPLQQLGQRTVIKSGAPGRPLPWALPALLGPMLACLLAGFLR

Carbonic anhydrase 9 = Carbonic anhydrase 9 (Homo sapiens, UniProt Q16790); assay: Binding affinity against human cytosolic Carbonic anhydrase IX

Chain of Carbonic anhydrase 1 (P00915 whole entry): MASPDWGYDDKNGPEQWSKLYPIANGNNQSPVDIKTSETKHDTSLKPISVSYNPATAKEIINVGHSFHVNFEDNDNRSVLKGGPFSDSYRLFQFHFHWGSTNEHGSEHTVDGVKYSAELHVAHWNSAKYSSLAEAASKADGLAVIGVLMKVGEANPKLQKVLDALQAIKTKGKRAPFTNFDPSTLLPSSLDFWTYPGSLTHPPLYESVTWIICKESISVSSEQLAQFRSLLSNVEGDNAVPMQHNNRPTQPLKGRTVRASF

Row | Compound | Ki (Carbonic anhydrase 1) | Ki [1] | Ki (Carbonic anhydrase 2) | Ki (Carbonic anhydrase 4) | Ki (Carbonic anhydrase 9)
1 | CC(=O)[O-].[Na+] [SODIUM ACETATE] | Activator | 25.9 mM | 0.13 mM | 550 µM | > 150 mM
2 | CC(O)C(=O)[O-].[Na+] (configuration not stated) [SODIUM LACTATE] | Activator | 3.37 mM | 3.22 mM | 1530 µM | > 150 mM
3 | O=C(O)C[C@H](O)C(=O)O [E350] | Activator | 2.49 mM | 1.87 mM | 53.7 µM | 7.42 mM
4 | CC(=O)C(=O)[O-].[Na+] [PYRUVATE SODIUM] | Activator | 5.5 mM | 2.11 mM | 14.5 µM | 1.12 mM
5 | O=C([O-])O.[Na+] [SODIUM BICARBONATE] |  | 82 mM |  |  | 
6 | O=C([O-])c1ccccc1.[Na+] [SODIUM BENZOATE] | Activator | 7.01 mM | 0.03 mM | 74.7 µM | > 150 mM
7 | O=C[O-].[Na+] [SODIUM FORMATE] | Activator | 9.97 mM |  |  | 
8 | O=C(O)c1c(F)c(F)cc(F)c1F |  | 1.62 mM | 0.006 mM | 74.5 µM | 0.77 mM
9 | O=C([O-])CC(O)(CC(=O)[O-])C(=O)[O-].[Na+].[Na+].[Na+] [SODIUM CITRATE] | Activator | 1.67 mM | 2.16 mM | 0.099 µM | 4.93 mM
10 | O=C([O-])CC(=O)[O-].[Na+].[Na+] [DISODIUM MALONATE] | Activator | 6 mM | 1.62 mM | 2.8 µM | 1.27 mM
11 | O=C([O-])C(=O)[O-].[Na+].[Na+] [SODIUM OXALATE] | Activator | 2.23 mM | 0.99 mM | 0.099 µM | 3.28 mM
